Laboratory results taken from ChEMBL document CHEMBL3352292, “i-Motif DNA: structure, stability and targeting with ligands” (Bioorg Med Chem, 2014).

How the values were obtained:
Homo sapiens [1] = organism: Homo sapiens; test: Binding affinity to human telomeric G-quadruplex DNA assessed as change in melting temperature by FRET assay
Homo sapiens [2] = organism: Homo sapiens; test: Binding affinity to human telomeric i-Motif DNA assessed as change in melting temperature at pH 6.8 by FRET assay
[3] = Binding affinity to bcl-2 i-Motif DNA (unknown origin) by fluorescence based assay
[4] = Reduction in bcl-2 expression in human GRANTA-519 cells xenografted in mouse; assay type: functional; settings: dose or concentration not given here
[5] = Antitumor activity against human GRANTA-519 cells xenografted in mouse assessed as inhibition of tumor growth co-administered with etoposide; assay type: functional
[6] = Binding affinity to d(C5T3)3C5 i-Motif DNA (unknown origin) by UV titration method
[7] = Binding affinity to human telomeric G-quadruplex DNA
[8] = Binding affinity to human telomeric duplex DNA
Homo sapiens [9] = organism: Homo sapiens; test: Increase in thermal stability of human telomeric i-Motif DNA assessed as change in melting temperature at pH 5.5
Homo sapiens [10] = organism: Homo sapiens; test: Binding to human telomeric i-Motif DNA by fluorescence titration method

SMILES	Kd [7]	Kd [8]	ΔTm (Homo sapiens [9])	Kd (Homo sapiens [10])	other results
c1cc2nc3ccc4cc3cc2cc1CNCCNCCNCc1ccc2nc3ccc(cc3cc2c1)CNCCNCCNC4					ΔTm (Homo sapiens [1]): 15 °C; ΔTm (Homo sapiens [2]): 33 °C
COc1ccc2c(c1)CN([C@@H](C)[C@H]1CC[C@H]3[C@@H]4CC[C@H]5C[C@@H](O)CC[C@]5(C)[C@H]4CC[C@]13C)CO2					Kd [3]: 1.01 µM; inhibition [4]: 20%; TGI [5]: 65%
CN(C)c1ccc(C(=C2C=CC(=[N+](C)C)C=C2)c2ccc(N(C)C)cc2)cc1 [GENTIAN VIOLET]					Kd [6]: 0.83 µM
CN(C)CCOc1ccc(NC(=O)c2ccc3ccc4ccc(C(=O)Nc5ccc(OCCN(C)C)cc5)nc4c3n2)cc1	1.6 µM	6.7 µM	7 °C	4 µM	
O=C(Nc1ccc(OCCN2CCCCC2)cc1)c1ccc2ccc3ccc(C(=O)Nc4ccc(OCCN5CCCCC5)cc4)nc3c2n1	1.6 µM	6.7 µM	7 °C	4 µM	
CC(C)CC[C@H](C)[C@@H]1CC[C@H]2[C@@H]3CC[C@H]4C[C@@H](NC(=O)C[N+]5(C)CCCCC5)CC[C@]4(C)[C@H]3CC[C@@]21C					Kd [3]: 0.49 µM
O=C(Nc1ccc(OCCN2CCCC2)cc1)c1ccc2ccc3ccc(C(=O)Nc4ccc(OCCN5CCCC5)cc4)nc3c2n1	1.6 µM	6.7 µM	7 °C	4 µM	
